Patent US20100255580A1, “Differentiation of Human Embryonic Stem Cells” (LIFESCCAN, INC., priority 2007, published 2010)

Experiments:
Type in all cases: cell-based
[1] = system: human embryonic stem cell line H9; assay: Real-time PCR, H9 maintained on […] and differentiated on MEFs (Example 25)
Description: (§1) Cells from the human embryonic stem cell line H9 cultured on […]™ for at least five passages were seeded onto MEF feeders in ES media.
(§2) At day 3 and 5, the cultures were analyzed by real time PCR for SOX-17, SOX-7, Alpha-fetal protein (AFP), CXCR4, Brychyury (Bry), gooscecoid (GSC), HNF-3 beta, GATA4, hTERT and Oct4. AFP and SOX-7 are regarded as visceral endoderm markers while GATA4, HNF-3beta and SOX-17 represent definite endoderm markers and GSC, Bry, and CXCR4 represent markers of primitive streak. hTERT and Oct-4 are markers for self renewal and pluripotency respectively. FACS analysis was also performed at day 3 and 5.

[2] = system: human embryonic stem cell line H9; assay: FACS of CXCR4 and CD9, H9 maintained on […] and differentiated on MEFs (Example 25); conditions: for CXCR4 positive cells (FACS): without (label Activin A) or with Wnt3a
Description: Adhered cells were removed from culture plates by five-minute incubation with TrypLE™ Express solution (Invitrogen, CA). Released cells were resuspended in human embryonic stem cell culture medium and recovered by centrifugation, followed by washing and resuspending the cells in a staining buffer consisting of 2% BSA, 0.05% sodium azide in PBS (Sigma, MO). As appropriate, the cells were Fc-receptor blocked for 15 minutes using a 0.1% γ-globulin (Sigma) solution. […] Controls included appropriate isotype matched antibodies, unstained cells, and cells stained only with secondary conjugated antibody. All incubations with antibodies were performed for 30 mins at 4° C. after which the cells were washed with the staining buffer. Samples that were stained with unconjugated primary antibodies were incubated for an additional 30 mins at 4° C. with secondary conjugated PE or -APC labeled antibodies. See Table I for a list of secondary antibodies used. Washed cells were pelleted and resuspended in the staining buffer, and the cell surface molecules were identified using a FACS Array (BD Biosciences) instrument, collecting at least 10,000 events.
as §1, §2

[3] = system: human embryonic stem cells (H9, H7) on MATRIGEL; assay: Real-time PCR of definitive endoderm markers, DE protocol on […] or fibronectin (feeder-free); conditions: for expression of definitive endoderm markers: with 50 ng/ml of AA, 20 ng/ml Wnt-3A or 100 nM GSK-3B inhibitor IX
Description: Real-time PCR amplification and quantitative analysis.
Final data were expressed relative to a calibrator sample.
Differentiation of embryonic stem cells to definitive endoderm was carried out as previously described in Nature Biotechnology 23, 1534-1541 (December 2005). […] In all subsequent examples unless otherwise noted, this treatment regimen will be referred to as the definite endoderm (DE) protocol. In parallel, H9, H7, or H1 cells cultured on MEF feeders were also exposed to the same DE protocol outlined above.
At day 5, the cultures were analyzed by FACS for CXCR4, E-cadherin, CD9, CD99, and N-cadherin (CD56) expression and by real time PCR for SOX-17, SOX-7, Alpha-fetal protein (AFP), CXCR4, Brychyury (Bry), gooscecoid (GSC), HNF-3 beta, and GATA4. AFP and SOX-7 are regarded as visceral endoderm markers while GATA4, HNF-3beta and SOX-17 represent definite endoderm markers and GSC, Bry, and CXCR4 represent markers of primitive streak.
In some of the cultures 20 ng/ml Wnt-3a (Catalog #1324-WN-002, R&D Systems, MN), 20 ng/ml Wnt-5a (Catalog #654-WN-010, R&D Systems, MN), 25 ng/ml Wnt-7a (Catalog #3008-WN-025, R&D Systems, MN), or 25 ng/ml Wnt-5b (Catalog #3006-WN-025, R&D Systems, MN) was added throughout the five day treatment. FIG. 24 depicts phase contrast images of H9P46 definitive endoderm culture in the presence of high concentration of (a) AA or (b) AA+20 ng/ml Wnt-3a. FIG. 25 depicts the expression of CXCR4 by FACS at day 5 for H7P44, and H9P46 lines cultured on […] (1:30 dilution) and exposed to the DE protocol+Wnt-3a (FIG. 25, panels b and d) and −Wnt-3a (FIG. 25, panels a and c).
Control cultures were not treated with Wnt-3a. FIG. 27, panel a depicts the expression of CXCR4 by FACS at day 5 in the absence of Wnt-3a, b) 10 ng/ml Wnt-3a, c) 20 ng/ml Wnt-3a and d) 50 ng/ml Wnt-3a. In the absence of Wnt-3a the expression of CXCR4 was very low. […] Real-time PCR results (FIG. 28, panel a) also confirm this finding.
In a separate study, H9 p52 cells were plated on 1:30 low growth factor […]™. For the first 2 days of the DE protocol a range of Wnt3A doses was used: 10 ng/ml, 5 ng/ml and 1 ng/ml. […] The number of cells at the end of the experiment is noted in FIG. 28, panel c.
In order to confirm that the effect of Wnt-3a was through the Wnt pathway, a GSK-3 inhibitor was used to activate the downstream targets of Wnt, such as beta catenin. […] FIG. 29, panel a depicts the expression of CXCR4 by FACS at day 5 in the absence of Wnt-3a or GSK-3B inhibitor, b) +20 ng/ml Wnt-3a, c) +1000 nM GSK-3B inhibitor IX, d) +500 nM GSK-3B inhibitor IX, e) +100 nM GSK-3B inhibitor IX, f) +10 nM GSK-3B inhibitor IX, g) +100 nM GSK-3B inhibitor IX for days 1-2, and h) +10 nM GSK-3B inhibitor IX for days 1-2.
FIG. 31 panels a-d is for H9P49 cells and panels e-f is for H1P46 cells.
Results are expressed as fold increase over untreated cells. […] Results are expressed as fold increase over untreated cells.
H9P55 cells were grown and differentiated on human fibronectin or regular growth factor […]™ (BD Biosciences). lml of DMEM/F12 (Invitrogen/GIBCO) containing 1 ug/ml of human fibronectin (R&D systems, MN) was added to each well of 6 well tissue culture treated dish. Alternatively, regular growth factor […]™ was diluted 1:10 in DMEM/F12 and 1 ml of diluted […]™ was added to each well of 6 well tissue culture treated dish. Cells were passed with collagenase. […] Real-time PCR results (FIG. 39) confirm that formation of definitive endoderm was equivalent on fibronectin and […]™ coated plates.
To determine if the addition of Wnt-3a was causing the increase in differentiation, an inhibitor of Wnt-3 signaling was added to the cultures. […] H9 cells were cultured on plates coated with Growth Factor Reduced […] at a 1:30 dilution. The plates were coated with […] for 1 hr at room temperature. […]

[4] = day 3, high concentration of Activin A
[5] = day 5, high concentration of activin A

Compound | AFP expression ([1]; Wnt3a 20 ng/ml added to 100 ng/ml activin A, increases over time) | role in differentiation of human embryonic stem cells, cultured on MEFs, to definitive endoderm [2] | CXCR4 positive cells (FACS) [2, 4] | CXCR4 positive cells (FACS) [2, 5] | definitive endoderm markers (real-time PCR) ([3]; H7 and H9, low serum+AA+/−Wnt ligands, 5 days) | expression of definitive endoderm markers ([3]; H9P49) | Wnt3a dose sufficient to reach optimal cell expansion and definitive endoderm differentiation ([3]; H9 p52, for 2 days) [ng/mL] | AFP expression ([1]; lower concentration of Activin A, regardless of Wnt3a) | outcome of lower doses of activin A ([3]; H9P49, with Wnt-3a or GSK-3B inhibitor IX)
Wnt-3a | increase in the expression of AFP | does not appear to play a significant role | 23-33% | 43-51% | significant upregulation | robust expression | 10 | – | –
O=C1Nc2cc(Br)ccc2/C1=C1/Nc2ccccc2/C1=N\O [GSK-3B inhibitor IX, reference compound] | – | – | – | – | – | robust expression | – | – | –
Activin A: a member of the TGFβ superfamily; R&D Systems; Group 2 = Activin A (100 ng/ml) | – | – | 32-42% | 28-32% | – | – | – | very high | formation of extraembryonic endoderm
